Reference: PMC11357102, “Thiazole Functionalization of Thiosemicarbazone for Cu(II) Complexation: Moving toward Highly Efficient Anticancer Drugs with Promising Oral Bioavailability” (Molecules, 2024)

Experiments:
[1] = clinical trials; cited from earlier work
HuH-7 cells [2] = experiment: Intracellular ROS generation, DCFH-DA probe; format: cell-based; conditions: HuH-7, equivalent HL concentration 2 μg/mL, 2 h
Text: Given the efficient •OH production in water induced by 1 and 2, we next investigated in vitro ROS generation by 1 and 2 in the representative HuH-7 cell line using 2′,7′-dichlorodihydrofluorescein diacetate (DCFH-DA) as a fluorescence probe and compared it with that of HL [34, 35]. The non-emissive DCFH-DA can be readily uptaken by the cell, where it is hydrolyzed into 2,7-dichlorodihydrofluorescein (DCFH) by cellular enzymes. Upon oxidation by ROS, DCFH can convert to 2,7-dichlorofluorescein (DCF), which gives bright green fluorescence.
HuH-7 cells were introduced into a 12-well plate (4 × 10^5 per well) in 1 mL of growing media (DMEM + 10% FBS + 1% P/S), and the cells were incubated at 37 °C under 5% CO2 for 24 h for attachment. The growing media were removed, and the wells were replenished with HL, 1, and 2 in 1 mL of growing media (with 2 ppm of DMSO) with equivalent HL concentrations of 2 μg/mL. The cells were incubated for an additional 2 h, and then the culturing media was replaced with […] DCFH-DA in DMEM + 1% P/S (1 mL), prepared by diluting (1:1000) a concentrated DCFH-DA following the supplied protocols. The cells were incubated for a further 20 min, and then the culturing media was removed. […]

PLC/PRF/5 cells = experiment: CCK-8 cytotoxicity assay, PLC/PRF/5; format: cell-based; conditions: Homo sapiens; PLC/PRF/5, CCK-8, 72 h incubation, n = 3
Experimental: (§1) The cytotoxicity of HL, 1, and 2 against three hepatocellular carcinoma cell lines Hep-G2, PLC/PRF/5, and HuH-7 were evaluated by the cell counting kit-8 (CCK-8; APExBIO Technology, Houston, TX, USA) assay.
(§2) The HuH-7 cell line was cultured in DMEM + 10% FBS + 1% P/S and DMEM + 1% P/S. Cells grew as a monolayer and were detached upon confluence using trypsin (0.5% w/v in PBS). The cells were harvested from the cell culture medium by incubation in trypsin solution for 3 min, and they were then centrifuged with the supernatant and subsequently discarded. A 3 mL portion of serum-supplemented cell culture medium was added to neutralize any residual trypsin. The cells were re-suspended in serum-supplemented DMEM at a concentration of 5 × 10^4 cells/mL. […] After incubation, 100 μL of culture medium (DMEM + 10% FBS + 1% P/S) and 10 μL of CCK-8 was introduced and cultured for an additional 2 h before spectrophotometric measurement at 450 nm on a microplate reader. The relative cell viability (%) related to control cells was calculated using the equation: V%=[A]experimental−[A]blank/[A]control−[A]blank×100% where V% is the percentage of cell viability, [A]experimental is the absorbance of the wells culturing the treated cells, [A]blank is the absorbance of the blank, and [A]control is the absorbance of the wells culturing untreated cells. […]

CD®(SD) IGS rats = experiment: Toxicological study of HL, daily PO administration; format: in vivo
Experimental: Their weight and status were monitored and compared with the control group (groups 1 and 2) that was fed sterilizing solutions. […] This highlights that a 5 mg kg^−1 drug dosage of HL by PO administration is safe for in vivo studies.
The weight of the rats was continuously monitored over 27 days, and they were fed on day 1, 4, 8, 13, 16, 19, and 23.

Hep-G2 cells = experiment: CCK-8 cytotoxicity assay, Hep-G2; format: cell-based; conditions: Homo sapiens, HepG2; Hep-G2, CCK-8, 72 h incubation, n = 3
Experimental: as §1, §2

[3] = In vivo pharmacokinetic study of HL (plasma, HPLC); design: species or system CD®(SD) IGS rats
Experimental: For pharmacokinetic studies, CD®(SD) IGS rats (5−6 weeks old) were randomly divided into two groups (three for each group) for oral administration (per os, PO) or intravenous administration (i.v.) of HL with dosages of 30 mg kg^−1 and 0.5 mg kg^−1, respectively (Tables S3 and S4). The blood was then collected from the orbital sinus with a heparinized syringe at different time intervals (0.5, 1.0, 2.0, 4.0, 8.0, and 24 h for PO, and 0.03, 0.5, 1.0, 2.0, 4.0, 8.0, and 24 h for i.v.).
CD®(SD) IGS rats (5–6 weeks old) were purchased from Beijing Vital River Laboratory Animal Technology Co., Ltd. (Beijing, China). All animal experiments were conducted in accordance with the requirements of the Experimental Animal Welfare Ethics Committee of Transcenta Diagnostic Technology (Suzhou) Co., Ltd. (PZ-20211210001). For pharmacokinetic experiments, SD rats were randomly divided into two groups, with 3 for PO administration (30 mg kg^−1) and i.v. administration (0.5 mg kg^−1), respectively. Plasma was collected from the jugular vein with the presence of a heparinized syringe at different time intervals, viz. 0.5, 1.0, 2.0, 4.0, 8.0, and 24 h for PO and 0.03, 0.5, 1.0, 2.0, 4.0, 8.0, and 24 h for i.v. Plasma was first centrifuged at 3500 rpm for 10 min, and then 0.05 mL of the plasma was extracted; trifluoroacetic acid was used to acid precipitate protein, and NaOH was used to neutralize the solution. The mixture was diluted using MeCN: H2O (5:5 v/v). After 10 min of precipitating, supernatant fluids were collected by centrifugation at 10,000 rpm for 5 min and filtered with a syringe through a 0.22 μm hydrophilic membrane filter and measured using the HPLC method. For the HPLC assay, the analytical column was an Agilent ZORBAX SB C18 column (4.6 mm × 150 mm, 5 μm). The mobile phase was MeCN:H2O (5:5 v/v), the flow rate of the mobile phase was 0.8 mL min^−1, and the UV detector was set at 245 nm.

[4] = Stability of MeOH solutions by UV-Vis; conditions: HL/L concentration 30 μg/mL, kept for 72 h
HuH-7 cells [5] = experiment: CCK-8 cytotoxicity assay, HuH-7; format: cell-based; conditions: Homo sapiens; HuH-7, CCK-8, 72 h incubation, n = 3
Experimental: as §1, §2

[6] = Hydroxyl radical (•OH) production from H2O2, TMB assay; conditions: 5, 10, 20, 30 μg/mL HL or equivalent HL, 100 μM H2O2, 20 min incubation
Experimental: The generation of •OH from H2O2 by HL, 1, and 2 was assayed by 3,3′,5,5′-tetramethylbenzidine (TMB) [12, 28, 29]. The colorless TMB can be quickly oxidized by •OH to give a characteristic blue charge-transfer complex oxTMB with intense absorption at 652 nm [30, 31]. Different concentrations of HL (5, 10, 20, 30 μg/mL) or 1 and 2 containing equivalent HL were treated with (TMB) solution containing 100 μM H2O2, which is assumed as approximately the concentration reported to be present in tumor cells, or five times that in normal cells [32, 33].

[7] = CD(SD) IGS (SD), rat, plasma, iv, 0.5 mg kg−1, mean, n = 3
[8] = CD(SD) IGS (SD), rat, plasma, iv, 0.5 mg/kg, 0.5 mg kg−1, mean, n = 3
[9] = CD(SD) IGS (SD), rat, plasma, po, 30 mg/kg, 30 mg kg−1, mean, n = 3
[10] = CD(SD) IGS (SD), rat, plasma, PO, 30 mg kg−1, mean, n = 3

S=C(N/N=C1\CCCc2cccnc21)N1CCN(c2ccccn2)CC1 [COTI-2, 4-(pyridine-2-yl)-N-([(8E)-5,6,7,8-tetrahydroquinolin-8-ylidene]amino)piperazine-1-carbothioamide]
side effects [1]: drug resistance and other adverse effects (i.e., nausea, vomiting, and fatigue)

NC(=S)NN=Cc1ccc(O)cn1 [Compound 5-HP, 5-hydroxypicolinaldehyde thiosemicarbazone]
side effects [1]: severe hematological and gastrointestinal side effects

S=C(NN=C(c1ccccn1)c1ccccn1)N1CCN(c2nccs2)CC1 [HL, N′-(di(pyridin-2-yl)methylene)-4-(thiazol-2-yl)piperazine-1-carbothiohydrazide]
intracellular ROS generation (DCF fluorescence) (HuH-7 cells [2]): negligible ROS
IC50 (PLC/PRF/5 cells): 3.26 µM
body weight of rats (CD®(SD) IGS rats; daily 5 mg kg−1 (12.2 μmol kg−1), groups 3 and 4, similar to control groups 1 and 2): constantly growing
rats with abnormal behaviors (decreasing food uptake, cachexia, lethargy) on day 9, which died or were euthanized after drug suspension (CD®(SD) IGS rats; daily 10 mg kg−1 (24.4 μmol kg−1), groups 5 and 6): four of six
IC50 (Hep-G2 cells): 78.8 µM
AUC(0-inf) [3, 7]: 5700 ± 2650 ng·h/mL
AUC(0-t) [3, 7]: 4210 ng·h/mL
C0 [3, 7]: 858 ng/mL
MRT last [3, 7]: 7.85 h
half-life [3, 7]: 11.9 ± 1.66 h
clearance ([3]; CD(SD) IGS (SD), rat, plasma, iv, 0.5 mg kg−1, mean, n = 3, read-out: Cl_obs (converted)): 1.8 mL/min/kg
concentration at 0.03 h ([3]; CD(SD) IGS (SD), rat, plasma, iv, 0.5 mg kg−1, sampling time 0.03 h): 806 ng/mL
concentration at 0.5 h ([3]; CD(SD) IGS (SD), rat, plasma, iv, 0.5 mg kg−1, sampling time 0.50 h): 349 ng/mL
concentration at 1 h ([3]; CD(SD) IGS (SD), rat, plasma, iv, 0.5 mg kg−1, sampling time 1.00 h): 341 ng/mL
concentration at 2 h ([3]; CD(SD) IGS (SD), rat, plasma, iv, 0.5 mg kg−1, sampling time 2.00 h): 372 ng/mL
concentration at 4 h ([3]; CD(SD) IGS (SD), rat, plasma, iv, 0.5 mg kg−1, sampling time 4.00 h): 240 ng/mL
concentration at 8 h ([3]; CD(SD) IGS (SD), rat, plasma, iv, 0.5 mg kg−1, sampling time 8.00 h): 163 ng/mL
concentration at 24 h ([3]; CD(SD) IGS (SD), rat, plasma, iv, 0.5 mg kg−1, sampling time 24.00 h): 83.8 ng/mL
Cmax [3, 8]: 806 ± 46.7 ng/mL
Tmax [3, 8]: 0.03 h
Cmax [3, 9]: 472 ng/mL
Tmax [3, 9]: 1.17 h
AUC(0-inf) [3, 10]: 10400 ± 5310 ng·h/mL
AUC(0-t) [3, 10]: 5340 ng·h/mL
MRT last [3, 10]: 9.4 h
half-life [3, 10]: 21.6 ± 9.4 h
CL/F ([3]; CD(SD) IGS (SD), rat, plasma, PO, 30 mg kg−1, mean, n = 3, read-out: Cl_F_obs (converted)): 55.6 mL/min/kg
concentration at 0.5 h ([3]; CD(SD) IGS (SD), rat, plasma, PO, 30 mg kg−1, sampling time 0.50 h): 242 ng/mL
concentration at 1 h ([3]; CD(SD) IGS (SD), rat, plasma, PO, 30 mg kg−1, sampling time 1.00 h): 426 ng/mL
concentration at 2 h ([3]; CD(SD) IGS (SD), rat, plasma, PO, 30 mg kg−1, sampling time 2.00 h): 410 ng/mL
concentration at 4 h ([3]; CD(SD) IGS (SD), rat, plasma, PO, 30 mg kg−1, sampling time 4.00 h): 316 ng/mL
concentration at 8 h ([3]; CD(SD) IGS (SD), rat, plasma, PO, 30 mg kg−1, sampling time 8.00 h): 218 ng/mL
concentration at 24 h ([3]; CD(SD) IGS (SD), rat, plasma, PO, 30 mg kg−1, sampling time 24.00 h): 145 ng/mL
Vz_F_obs ([3]; PO, 30 mg kg−1, mean, n = 3): 93.07416 L/kg
Vss_obs ([3]; i.v., 0.5 mg kg−1, mean, n = 3): 1.75547 L/kg
Vz_obs ([3]; i.v., 0.5 mg kg−1, mean, n = 3): 1.75231 L/kg
stability of MeOH solution (UV-Vis absorption pattern) [4]: remained stable
IC50 (HuH-7 cells [5]): 192 µM
generation of •OH from H2O2 (oxTMB, absorption at 652 nm) [6]: no oxTMB found

NC(=S)NN=Cc1ncccc1N [Triapine, 3-aminopyridine-2-carboxaldehyde thiosemicarbazone]
side effects [1]: formation of methemoglobin hypoxia
